In brackets after ≈: the same amount, converted by molar mass.
Columns and labels:
[1] = Release testing, USP paddle apparatus, purified water, UV at 260 nm; type: physicochemical; details: raw material, 0.2 g in 100 ml water; FIG. 1
Method: Dissolution experiments were performed in a Sotax AT7 Dissolution apparatus, USP paddle.
All assays were performed in a Shimadzu UV-1700 spectrophotometer.
Release testing was performed in a USP paddle apparatus using 500 ml purified water as release medium and operated at 100 rpm. The results were quantified by a Shimadzu spectrophotometer at 260 nm after dilution 1:50.
To assess whether the ethylcellulose film coating was able to delay the release of nicotinamide, the release from the coated 95% granules (RD1302-2-C1) was tested and compared to the release from the raw material. Nicotinamide from the raw material (0.2 g in 100 ml water) was dissolved very quickly and within 5 minutes. […] Release of the remaining nicotinamide started later than 30 minutes, and after 3 hours 85% had been released. This means that release of nicotinamide can be released over 3 hours by applying an ethylcellulose film.

[2] = cited from earlier work

SMILES: NC(=O)c1cccnc1 [Nicotinamide]
- Time until dissolved [1]: ≤ 5 min
- Solubility in 96% ethanol ([2]; 96% ethanol): 660 mg/mL (≈ 5400 mM)
- Solubility in water ([2]; water, 20° C.): 690 mg/mL (≈ 5650 mM)
